This note sets out measurements from US7943770B2, “Fused quinoline derivative and use thereof” (Takeda Pharmaceutical Company Limited, priority 2004, dated 2011).

Molecules are shown by their SMILES. Some results are limits rather than exact numbers.

For this experiment, the target named is T1, hNK2 receptor (Homo sapiens, UniProt P21452).
T1 construct: host or cells: CHO cells
T1 sequence (P21452 1-398): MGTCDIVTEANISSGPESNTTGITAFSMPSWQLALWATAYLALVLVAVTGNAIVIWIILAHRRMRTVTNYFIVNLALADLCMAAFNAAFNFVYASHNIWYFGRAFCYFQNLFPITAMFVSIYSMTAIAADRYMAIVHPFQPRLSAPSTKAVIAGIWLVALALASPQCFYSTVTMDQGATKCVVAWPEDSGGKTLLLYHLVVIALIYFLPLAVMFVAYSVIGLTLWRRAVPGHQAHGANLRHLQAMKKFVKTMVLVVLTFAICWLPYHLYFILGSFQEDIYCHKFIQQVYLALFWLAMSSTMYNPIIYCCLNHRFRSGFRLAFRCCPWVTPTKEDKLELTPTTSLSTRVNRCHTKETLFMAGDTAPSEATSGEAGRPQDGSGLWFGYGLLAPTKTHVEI
The experiment is described as follows: Radio-ligand ([125I]-NKA) receptor binding inhibitory activity using membrane fraction of hNK2 receptor-expressing CHO cell. To be noted: membrane fraction of hNK2 receptor-expressing CHO cells, 25° C., 30 min. How it is done:
hNK2 receptor-expressing CHO cells (produced by EUROSCREEN) were cultured in HAM-F12 medium containing 400 μg/ml Geneticin, 100 U/mL penicillin, 100 μg/mL streptomycin and 10% inactivated serum. The medium was removed and adhered cells were washed with PBS, and PBS containing 5 mM EDTA was added to detach the cells from the flask. The cells were recovered by centrifugation, suspended in suspending buffer A (15 mM Tris-HCl (pH 7.5), 2 mM MgCl2, 0.3 mM EDTA, 1 mM EGTA), disrupted by POLYTRON homogenizer (manufactured by KINEMATICA) and centrifuged at 800×g for 10 min. The supernatant was recovered and ultracentrifuged at 100000×g for 25 min. The precipitated fraction was suspended in suspending buffer B (7.5 mM Tris-HCl (pH 7.5), 12.5 mM MgCl2, 0.3 mM EDTA, 1 mM, […], 250 mM Sucrose) and cryopreserved (at −80° C.) as a receptor specimen.
An assay buffer (50 μl, 50 mM Tris-HCl (pH 7.4), 0.02% bovine serum albumin, 2 μg/mL chymostatin, 40 μg/mL bacitracin, 40 μg/mL APMSF, 3 mM MnCl2) was added to a 96 well microassay plate. Thereto was added a 20 μg/mL membrane specimen suspended in the assay buffer (50 μL). An assay buffer (50 μL) containing 2% dimethyl sulfoxide was added to examine the total binding, 4 unlabeled NKA (produced by Peptide Institute, Inc.) solution (50 μL) diluted with an assay buffer containing 2% dimethyl sulfoxide was added to examine non-specific binding, and a test compound diluted with an assay buffer (50 containing 2% dimethyl sulfoxide) was added to examine the binding inhibitory activity of the test compound. Furthermore, […] [^125I]-NKA (produced by Amersham Biosciences) solution (50 μL) was added to each well.
After reaction at 25° C. for 30 min., the reaction was stopped by rapid filtration on a unifilter plate (GF/C) (manufactured by PerkinElmer) using a cell harvester (manufactured by PerkinElmer) and the cells were washed 5 times with 50 mM Tris-HCl (pH 7.4) buffer containing 0.02% bovine serum albumin (250 μL). The GF/C filter plate was dried and 20 μl, of MicroScinti-O (manufactured by PerkinElmer) was added and the radioactivity was measured in Topcount (manufactured by PerkinElmer). The GF/C filter plate, which had been immersed in 0.3% polyethyleneimine for one day, was used. Specific binding is shown by the value obtained by subtracting non-specific binding from the total binding. The binding inhibitory activity of the test compound is shown by the ratio of the value obtained by subtracting the measured value associated with the addition of the test compound from the total binding, to the value of the specific binding.
`O=C(N[C@@H]1CCCC[C@@H]1C(=O)N1CC[C@@H]2[C@H](c3ccccc3)Nc3ccccc3[C@@H]21)c1ccc(CO)cc1` [Example 120, 4-(Hydroxymethyl)-N-((1R,2S)-2-{[(3aR,4R,9bR)-4-phenyl-2,3,3a,4,5,9b-hexahydro-1H-pyrrolo[3,2-c]quinolin-1-yl]carbonyl}cyclohexyl)benzamide]: the half-inhibitory concentration (IC50) (usually the concentration at which inhibition is half-maximal) is less than 10 nM. Regarding `Cc1occc1[C@@H]1Nc2ccccc2[C@H]2[C@@H]1CCN2C(=O)[C@H]1CCCC[C@H]1NC(=O)c1ccccc1` [Example 75, N-((1R,2S)-2-{[(3aR,4R,9bR)-4-(2-Methyl-3-furyl)-2,3,3a,4,5,9b-hexahydro-1H-pyrrolo[3,2-c]quinolin-1-yl]carbonyl}cyclohexyl)benzamide], the half-inhibitory concentration (IC50) was less than 10 nM.

In the case of `O=C(NCCc1ccccc1)N[C@@H]1CCCC[C@@H]1C(=O)N1CC[C@@H]2[C@H](c3ccccc3)Nc3ccccc3[C@@H]21` [Example 146, N-(2-Phenylethyl)-N′-((1R,2S)-2-{[(3aR,4R,9bR)-4-phenyl-2,3,3a,4,5,9b-hexahydro-1H-pyrrolo[3,2-c]quinolin-1-yl]carbonyl}cyclohexyl)urea], the IC50 was less than 10 nM. In the case of `CCCCNC(=O)N[C@@H]1CCCC[C@@H]1C(=O)N1CC[C@@H]2[C@H](c3ccsc3)Nc3ccccc3[C@@H]21` [Example 188, N-Butyl-N′-((1R,2S)-2-{[(3aR,4R,9bR)-4-(3-thienyl)-2,3,3a,4,5,9b-hexahydro-1H-pyrrolo[3,2-c]quinolin-1-yl]carbonyl}cyclohexyl)urea], the IC50 was less than 1 nM. `CCC[C@@H]1Nc2ccccc2[C@H]2[C@@H]1CCN2C(=O)[C@H]1CCCC[C@H]1NC(=O)c1ccc(C#N)cc1` [Example 202, 4-Cyano-N-((1R,2S)-2-{[(3aR,4S,9bR)-4-propyl-2,3,3a,4,5,9b-hexahydro-1H-pyrrolo[3,2-c]quinolin-1-yl]carbonyl}cyclohexyl)benzamide] registered an IC50 of less than 1 nM. For `O=C(CCc1ccccc1)N[C@@H]1CCCC[C@@H]1C(=O)N1CC[C@@H]2[C@H](C3CC3)Nc3ccccc3[C@@H]21` [Example 181, N-((1R,2S)-2-{[(3aR,4S,9bR)-4-Cyclopropyl-2,3,3a,4,5,9b-hexahydro-1H-pyrrolo[3,2-c]quinolin-1-yl]carbonyl}cyclohexyl)-3-phenylpropanamide], the concentration for half-maximal inhibition (IC50) was less than 1 nM. With `CC(C)CCNC(=O)N[C@@H]1CCCC[C@@H]1C(=O)N1CC[C@@H]2[C@H](c3ccccc3)Nc3ccccc3[C@@H]21` [Example 166, N-(3-Methylbutyl)-N′-((1R,2S)-2-{[(3aR,4R,9bR)-4-phenyl-2,3,3a,4,5,9b-hexahydro-1H-pyrrolo[3,2-c]quinolin-1-yl]carbonyl}cyclohexyl)urea], the half-maximal inhibitory concentration (IC50) is less than 1 nM.

Take `O=C(N[C@@H]1CCCC[C@@H]1C(=O)N1CC[C@@H]2[C@H](c3ccccc3)Nc3cc(F)ccc3[C@@H]21)c1ccccc1` (relative stereo) [Example 6, N-((1R,2S)-2-{[(3aR*,4R*,9bR*)-7-Fluoro-4-phenyl-2,3,3a,4,5,9b-hexahydro-1H-pyrrolo[3,2-c]quinolin-1-yl]carbonyl}cyclohexyl)benzamide]: the half-maximal inhibitory concentration (IC50) is less than 10 nM. Molecule `COC[C@@H]1Nc2ccccc2[C@H]2[C@@H]1CCN2C(=O)[C@H]1CCCC[C@H]1NC(=O)Nc1ccc(N2CCOCC2)nc1` [Example 289, N-((1R,2S)-2-{[(3aR,4R,9bR)-4-(Methoxymethyl)-2,3,3a,4,5,9b-hexahydro-1H-pyrrolo[3,2-c]quinolin-1-yl]carbonyl}cyclohexyl)-N′-(6-morpholin-4-ylpyridin-3-yl)urea] had an IC50 of less than 10 nM. Regarding `COC[C@@H]1Nc2ccccc2[C@H]2[C@@H]1CCN2C(=O)[C@H]1CCCC[C@H]1NC(=O)c1cc2ccccc2[nH]1` [Example 229, N-((1R,2S)-2-{[(3aR,4R,9bR)-4-(Methoxymethyl)-2,3,3a,4,5,9b-hexahydro-1H-pyrrolo[3,2-c]quinolin-1-yl]carbonyl}cyclohexyl)-4H-indole-2-carboxamide], the IC50 is less than 1 nM. In the case of `COc1ccccc1C(=O)N[C@@H]1CCCC[C@@H]1C(=O)N1CC[C@@H]2[C@H](c3ccccc3)Nc3ccccc3[C@@H]21` [Example 94, 2-Methoxy-N-((1R,2S)-2-{[(3aR,4R,9bR)-4-phenyl-2,3,3a,4,5,9b-hexahydro-1H-pyrrolo[3,2-c]quinolin-1-yl]carbonyl}cyclohexyl)benzamide] it was less than 10 nM; in that of `COC[C@@H]1Nc2ccccc2[C@H]2[C@@H]1CCN2C(=O)[C@H]1CCCC[C@H]1NC(=O)c1ccc(OC)c(C#N)c1` [Example 275, 3-Cyano-4-methoxy-N-((1R,2S)-2-{[(3aR,4R,9bR)-4-(methoxymethyl)-2,3,3a,4,5,9b-hexahydro-1H-pyrrolo[3,2-c]quinolin-1-yl]carbonyl}cyclohexyl)benzamide], less than 1 nM. `COC[C@@H]1Nc2ccccc2[C@H]2[C@@H]1CCN2C(=O)[C@H]1CCCC[C@H]1NC(=O)c1ccc2[nH]c(C)nc2c1` [Example 279, N-((1R,2S)-2-{[(3aR,4R,9bR)-4-(Methoxymethyl)-2,3,3a,4,5,9b-hexahydro-1H-pyrrolo[3,2-c]quinolin-1-yl]carbonyl}cyclohexyl)-2-methyl-1H-benzimidazole-5-carboxamide] displayed an IC50 of less than 1 nM. Regarding `O=C(Nc1ccccn1)N[C@@H]1CCCC[C@@H]1C(=O)N1CC[C@@H]2[C@H](c3ccccc3)Nc3ccccc3[C@@H]21` [Example 170, N-((1R,2S)-2-{[(3aR,4R,9bR)-4-Phenyl-2,3,3a,4,5,9b-hexahydro-1H-pyrrolo[3,2-c]quinolin-1-yl]carbonyl}cyclohexyl)-N′-pyridin-2-ylurea], the IC50 is less than 10 nM. The molecule `O=C(Nc1ccccc1)N[C@@H]1CCCC[C@@H]1C(=O)N1CCc2c(-c3ccccc3)nc3ccccc3c21` [Example 326, N-Phenyl-N′-{(1R,2S)-2-[(4-phenyl-2,3-dihydro-1H-pyrrolo[3,2-c]quinolin-1-yl)carbonyl]cyclohexyl}urea] had a half-maximal inhibitory concentration (IC50) of less than 10 nM. Next, `O=C(N[C@@H]1CCCC[C@@H]1C(=O)N1CC[C@@H]2[C@H](c3ccn[nH]3)Nc3ccccc3[C@@H]21)c1ccccc1` (relative stereo) [Example 56, N-((1R,2S)-2-{[(3aR*,4R*,9bR*)-4-(1H-Pyrazol-5-yl]-2,3,3a,4,5,9b-hexahydro-1H-pyrrolo[3,2-c]quinolin-1-yl]carbonyl}cyclohexyl)benzamide]: less than 10 nM; `COC[C@@H]1Nc2ccccc2[C@H]2[C@@H]1CCN2C(=O)[C@H]1CCCC[C@H]1NC(=O)/C=C/c1ccc(C(F)(F)F)cc1` [Example 209]: less than 1 nM; `COC[C@@H]1Nc2ccccc2[C@H]2[C@@H]1CCN2C(=O)[C@H]1CCCC[C@H]1NC(=O)c1ccccc1C#N` [Example 232, 2-Cyano-N-((1R,2S)-2-{[(3aR,4R,9bR)-4-(methoxymethyl)-2,3,3a,4,5,9b-hexahydro-1H-pyrrolo[3,2-c]quinolin-1-yl]carbonyl}cyclohexyl)benzamide]: less than 10 nM.

In turn, `O=C(N[C@@H]1CCCC[C@@H]1C(=O)N1CC[C@@H]2[C@H](c3ccccc3)Nc3ccccc3[C@@H]21)c1cnccn1` [Example 127, N-((1R,2S)-2-{[(3aR,4R,9bR)-4-Phenyl-2,3,3a,4,5,9b-hexahydro-1H-pyrrolo[3,2-c]quinolin-1-yl]carbonyl}cyclohexyl)pyrazine-2-carboxamide] returned a concentration for half-maximal inhibition (IC50) of less than 10 nM. `O=C(/C=C/c1ncc[nH]1)N[C@@H]1CCCC[C@@H]1C(=O)N1CC[C@@H]2[C@H](c3ccccc3)Nc3ccccc3[C@@H]21` [Example 134, (2E)-3-(1H-Imidazol-2-yl)-N-((1R,2S)-2-{[(3aR,4R,9bR)-4-phenyl-2,3,3a,4,5,9b-hexahydro-1H-pyrrolo[3,2-c]quinolin-1-yl]carbonyl}cyclohexyl)acrylamide] had an IC50 of less than 1 nM.
